Data: patent US10414774B2, “Compound useful for altering the levels of bile acids for the treatment of diabetes and cardiometabolc disease” (Merck Sharp & Dohme Corp., priority 2016, dated 2019)

Biological target: T1, Human CYP8B1 (Homo sapiens, UniProt Q9UNU6)
T1 sequence (Q9UNU6 1-501): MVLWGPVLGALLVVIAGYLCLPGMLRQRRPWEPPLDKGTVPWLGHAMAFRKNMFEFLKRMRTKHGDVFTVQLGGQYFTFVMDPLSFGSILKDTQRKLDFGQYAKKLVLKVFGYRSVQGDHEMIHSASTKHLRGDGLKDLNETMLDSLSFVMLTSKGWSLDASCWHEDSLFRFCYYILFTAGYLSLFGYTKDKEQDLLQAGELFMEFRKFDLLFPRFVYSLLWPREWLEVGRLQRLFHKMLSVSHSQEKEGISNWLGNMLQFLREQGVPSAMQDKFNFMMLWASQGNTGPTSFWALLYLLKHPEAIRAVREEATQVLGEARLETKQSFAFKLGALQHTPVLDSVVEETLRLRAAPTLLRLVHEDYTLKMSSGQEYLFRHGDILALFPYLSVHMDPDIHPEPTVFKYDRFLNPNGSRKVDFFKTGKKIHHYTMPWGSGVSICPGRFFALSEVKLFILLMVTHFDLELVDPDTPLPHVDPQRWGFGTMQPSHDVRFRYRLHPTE
Experiment: Human CYP8B1 Liver Microsome Assay
Conditions: Human CYP8B1 IC50, human liver microsomes; substrate 7a-hydroxy-4-cholesten-3-one, NADPH; RapidFire MS detection of 7α,12α-dihydroxy-4-cholesten-3-one
Protocol: To a 384 well polypropylene plate (Corning 3656), 250 nl of inhibitor in 100% DMSO (1.25% final DMSO concentration) was pre-plated using an Echo liquid handler (Labcyte Inc.). Human liver microsomes (Xenotech) were diluted in of 0.1 M phosphate buffer, pH 7.4, at a concentration of 65 μg/ml and 15 μL was added to the 384 well plate. The plates were incubated at ambient room temperature for 30 minutes. After pre-incubation with inhibitor, the reaction was initiated by adding 5 μl of substrate solution (4.0 μM 7a-hydroxy-4-cholesten-3-one (Toronto Research Chemicals), 2 mM of NADPH (Sigma), 0.1 M phosphate buffer (pH 7.4). The reaction was carried out for 45 minutes at ambient room temperature and was quenched by the addition of 50 μl of acetonitrile+0.1% vol/vol formic acid (FA)+300 nM 7α-hydroxy-4-cholesten-3-one-d7 (Toronto Research Chemicals). The plates were sealed and centrifuged at 3000 rpm for 5 minutes. Plates were loaded onto the Agilent RapidFire RF300 HTMS system, wherein samples were sipped for 600 ms, and the sip sensor detection signals the diversion of sample from the loop onto a C4 solid phase extraction (SPE) cartridge, where salts are washed off for 2500 ms with a mobile phase of water with 0.1% vol/vol FA at a flow rate of 1.5 ml/min. The column path was switched, and the sample was eluted off the cartridge and flowed into the mass spectrometer for 3000 ms with a mobile phase of acetonitrile and 0.1% vol/vol FA at a flow rate of 1.25 ml/min. The aspirator tip was washed separately with water and acetonitrile between sample aspirations (each for 600 ms) to minimize carryover contamination. Mass spectrometry was carried out using a Sciex API4000 triple quadrupole mass spectrometer (Applied Biosystems, Concord, ON, Canada) equipped with electrospray ionization (ESI) operated in the positive-ion mode. The product 7α,12α-dihydroxy-4-cholesten-3-one and internal standard 7α-hydroxy-4-cholsten-3-one-d7 were detected using multiple reaction monitoring (MRM) with Q1/Q3 transitions at m/z 417.3 to 381.3 and m/z 408.3 to 390.3, respectively, with a dwell time of 100 ms and a collision energy of 24 V for each transition. The mass spectrometer used an ESI voltage of 5000 V and a source temperature of 650° C. Extracted ion chromatograms for each transition were integrated and processed using the RapidFire Integrator software. The data for each well were normalized by monitoring product conversion with the ratio of AUCproduct/(AUCinternal standard). The data was then fitted to a four parameter logistic fit using ActivityBase Software to calculate an IC50 of the inhibitor.

| SMILES | IC50 |
| --- | --- |
| Cc1nc2ccc(Cl)cc2c(N2CC[C@H](C(=O)N3CCc4n[nH]c(C(F)(F)F)c4C3)[C@H](C)C2)c1C#N [Example 92, 6-chloro-2-methyl-4-[(3S,4S)-3-methyl-4-{[3-(trifluoromethyl)-2,4,6,7-tetrahydro-5H-pyrazolo[4,3-c]pyridin-5-yl]carbonyl}piperidin-1-yl]quinoline-3-carbonitrile] | 0.035 µM |
| Cc1nc2ccc(Cl)cc2c(N2CC[C@H](C(=O)N3CCc4c(n[nH]c4C(F)(F)F)C3)[C@H](C)C2)c1C#N [Example 93, 6-chloro-2-methyl-4-[(3S,4S)-3-methyl-4-{[3-(trifluoromethyl)-2,4,5,7-tetrahydro-6H-pyrazolo[3,4-c]pyridin-6-yl]carbonyl}piperidin-1-yl]quinoline-3-carbonitrile] | 0.028 µM |
| Cc1nc2ccc(Cl)cc2c(N2CC[C@H](C(=O)N3CCc4[nH]ncc4C3)[C@H](C)C2)c1C#N [Example 95, 6-chloro-2-methyl-4-[(3S,4S)-3-methyl-4-(1,4,6,7-tetrahydro-5H-pyrazolo[4,3-c]pyridin-5-ylcarbonyl)piperidin-1-yl]quinoline-3-carbonitrile] | 0.017 µM |
| Cc1nc2ccc(Cl)cc2c(N2CC[C@H](C(=O)N3CCn4nccc4C3)[C@H](C)C2)c1C#N [Example 96, 6-chloro-4-[(3S,4S)-4-(6,7-dihydropyrazolo[1,5-a]pyrazin-5(4H)-ylcarbonyl)-3-methylpiperidin-1-yl]-2-methylquinoline-3-carbonitrile] | 0.0086 µM |
| Cc1nc2ccc(Cl)cc2c(N2CC[C@H](C(=O)N3CCc4oncc4C3)[C@H](C)C2)c1C#N [Example 97, 6-chloro-4-[(3S,4S)-4-(6,7-dihydroisoxazolo[4,5-c]pyridin-5(4H)-ylcarbonyl)-3-methylpiperidin-1-yl]-2-methylquinoline-3-carbonitrile] | 0.0042 µM |
| Cc1nc2ccc(Cl)cc2c(N2CC[C@H](C(=O)N3CCc4sc(C(F)(F)F)nc4C3)[C@H](C)C2)c1C#N [Example 98, 6-chloro-2-methyl-4-[(3S,4S)-3-methyl-4-{[2-(trifluoromethyl)-6,7-dihydro[1,3]thiazolo[4,5-c]pyridin-5(4H)-yl]carbonyl}piperidin-1-yl]quinoline-3-carbonitrile] | 0.019 µM |
| Cc1nc2ccc(Cl)cc2c(N2CC[C@H](C(=O)N3CCn4cc(C(F)(F)F)nc4C3)[C@H](C)C2)c1C#N [Example 99, 6-chloro-2-methyl-4-[(3S,4S)-3-methyl-4-{[2-(trifluoromethyl)-5,6-dihydroimidazo[1,2-a]pyrazin-7(8H)-yl]carbonyl}piperidin-1-yl]quinoline-3-carbonitrile] | 0.052 µM |
| C[C@@H]1CN(c2c(C#N)cnc3cc(OCC4CC4)ccc23)CC[C@@H]1C(=O)N1CCn2c(nnc2C(F)(F)F)C1 [Example 100, 7-(cyclopropylmethoxy)-4-[(3S,4S)-3-methyl-4-{[3-(trifluoromethyl)-5,6-dihydro[1,2,4]triazolo[4,3-a]pyrazin-7(8H)-yl]carbonyl}piperidin-1-yl]quinoline-3-carbonitrile] | 0.00035 µM |
| CC(C)COc1ccc2c(N3CC[C@H](C(=O)N4CCn5c(nnc5C(F)(F)F)C4)[C@H](C)C3)c(C#N)cnc2c1 [Example 101, 7-(2-methylpropoxy)-4-[(3S,4S)-3-methyl-4-{[3-(trifluoromethyl)-5,6-dihydro[1,2,4]triazolo[4,3-a]pyrazin-7(8H)-yl]carbonyl}piperidin-1-yl]quinoline-3-carbonitrile] | 0.00033 µM |
| C[C@@H]1CN(c2c(C#N)cnc3cc(OCC(F)F)ccc23)CC[C@@H]1C(=O)N1CCn2c(nnc2C(F)(F)F)C1 [Example 102, 7-(2,2-difluoroethoxy)-4-[(3S,4S)-3-methyl-4-{[3-(trifluoromethyl)-5,6-dihydro[1,2,4]triazolo[4,3-a]pyrazin-7(8H)-yl]carbonyl}piperidin-1-yl]quinoline-3-carbonitrile] | 0.00033 µM |
| N#Cc1cnc2ccc(Cl)cc2c1N1CCC(C(=O)N2CCn3c(nnc3C(F)(F)F)C2)CC1 [Example 103, 6-chloro-4-(4-(3-(trifluoromethyl)-5,6,7,8-tetrahydro-[1,2,4]triazolo[4,3-a]pyrazine-7-carbonyl)piperidin-1-yl)quinoline-3-carbonitrile] | 0.0232 µM |
| N#Cc1cnc2ccc(Cl)cc2c1N1CCC(C(=O)N2CCn3cc(C(F)(F)F)nc3C2)CC1 [Example 104, 6-chloro-4-(4-{[2-(trifluoromethyl)-5,6-dihydroimidazo[1,2-a]pyrazin-7(8H)-yl]carbonyl}piperidin-1-yl)quinoline-3-carbonitrile] | 0.863 µM |
| N#Cc1cnc2ccc(Cl)cc2c1N1CCC(C(=O)N2CCn3cncc3C2)CC1 [Example 105, 6-chloro-4-[4-(5,6-dihydroimidazo[1,5-a]pyrazin-7(8H)-ylcarbonyl)piperidin-1-yl]quinoline-3-carbonitrile] | 0.878 µM |
| CCc1nnc2n1CCN(C(=O)C1CCN(c3c(C#N)cnc4ccc(Cl)cc34)CC1)C2 [Example 106, 6-chloro-4-{4-[(3-ethyl-5,6-dihydro[1,2,4]triazolo[4,3-a]pyrazin-7(8H)-yl)carbonyl]piperidin-1-yl}quinoline-3-carbonitrile] | 0.0081 µM |
| N#Cc1cnc2ccc(Cl)cc2c1N1CCC(C(=O)N2CCc3c(C4CC4)n[nH]c3C2)CC1 [Example 107, 6-chloro-4-{4-[(3-cyclopropyl-1,4,5,7-tetrahydro-6H-pyrazolo[3,4-c]pyridin-6-yl)carbonyl]piperidin-1-yl}quinoline-3-carbonitrile] | 0.0056 µM |
| N#Cc1cnc2ccc(Cl)cc2c1N1CCC(C(=O)N2CCc3cn[nH]c3C2)CC1 [Example 108, 6-chloro-4-[4-(1,4,5,7-tetrahydro-6H-pyrazolo[3,4-c]pyridin-6-ylcarbonyl)piperidin-1-yl]quinoline-3-carbonitrile] | 0.142 µM |
| CC1(C)CN(C(=O)C2CCN(c3c(C#N)cnc4ccc(Cl)cc34)CC2)Cc2nnc(C(F)(F)F)n21 [Example 109, 6-chloro-4-(4-{[5,5-dimethyl-3-(trifluoromethyl)-5,6-dihydro[1,2,4]triazolo[4,3-a]pyrazin-7(8H)-yl]carbonyl}piperidin-1-yl)quinoline-3-carbonitrile] | 0.375 µM |
| N#Cc1cnc2ccc(Cl)cc2c1N1CCC(C(=O)N2CCn3cnnc3C2)CC1 [Example 110, 6-chloro-4-[4-(5,6-dihydro[1,2,4]triazolo[4,3-a]pyrazin-7(8H)-ylcarbonyl)piperidin-1-yl]quinoline-3-carbonitrile] | 0.181 µM |
| N#Cc1cnc2ccc(Cl)cc2c1N1CCC(C(=O)N2CCc3c(C(F)(F)F)n[nH]c3C2)CC1 [Example 111, 6-chloro-4-(4-{[3-(trfluoromethyl)-1,4,5,7-tetrahydro-6H-pyrazolo[3,4-c]pyridin-6-yl]carbonyl}piperidin-1-yl)quinoline-3-carbonitrile] | 0.09 µM |
| CC1CN(C(=O)C2CCN(c3c(C#N)cnc4ccc(Cl)cc34)CC2)Cc2nnc(C(F)(F)F)n21 (centres unmarked) [Example 112, 6-chloro-4-(4-{[5-methyl-3-(trifluoromethyl)-5,6-dihydro[1,2,4]triazolo[4,3-a]pyrazin-7(8H)-yl]carbonyl}piperidin-1-yl)quinoline-3-carbonitrile] | 0.0697 µM |
